Experimental data from patent publication US7084166B2, “Bis-heterocyclic compounds with antitumour and chemosensitising activity” (Sigma-Tau Industrie Farmaceutichee Riunite S.p.A., priority 2000, dated 2006).
Values joined by “and” are separate entries in the source; they are usually repeats but may differ in a detail not shown here. Equal entries are not always repeated. Where two headings read alike, the source gives them in different places.

Legend:
Assay type in all cases: cell-based
[1] = test system: MCF-7 (human mammary carcinoma); experiment: Cytotoxicity test on sensitive tumour cell lines (sulforodamine B test); conditions: 24 h incubation, survival after 48 h, ± S.D., read-out: antiproliferative activity IC50, MCF-7
Procedure: (§1) This test was used to evaluate the survival of the human cell lines MCF-7 (human mammary carcinoma), LoVo (human colon adenocarcinoma), and MES-SA (human uterine sarcoma). The tumour cells were incubated with the compound, at scalar concentrations, (500 μM÷0.97 μM) for 24 hours; the compound was then removed and cell survival was evaluated after 48 hours using the sulforodamine B test (J. Natl. Cancer Inst. 82, 1107–1112). The antiproliferative activity of the compounds was evaluated in terms of the IC50 (concentration of the molecule that inhibits 50% of cell survival) processed with a curve-fitting program (Am. J. Physiol. 1978., 235, E97–E102) and expressed as μM±S.D.

[2] = test system: LoVo (human colon adenocarcinoma); experiment: as above; conditions: 24 h incubation, survival after 48 h, ± S.D., read-out: antiproliferative activity IC50, Lovo
Procedure: as §1

[3] = test system: MES-SA (human uterine sarcoma); experiment: as above; conditions: 24 h incubation, survival after 48 h, ± S.D., read-out: antiproliferative activity IC50, Mes-Sa
Procedure: as §1

[4] = test system: HL60 cells (acute promyelocytic leukaemia); experiment: Flow cytofluorimetric analysis of cell cycle; conditions: ATRA 0.5 μM alone, day 3
Procedure: The second line used was the HL60 cell line which responds to ATRA (but is less sensitive than the NB4 cell line).
The HL60 and NB4 cells were seeded at a density of 150,000 cells/ml in RPMI 1640 medium containing 10% foetal calf serum, and were treated with the tested compounds in the presence and absence of suboptimal doses of ATRA (5–10 nM for NB4 and 0.5 μM for HL60, respectively) in the dark, and returned to the incubator for 3 days without ever replacing the culture medium.
(§2) To assess the effect of the tested compounds on the various phases of the cell cycle, on the third day of treatment 500,000 cells were harvested, centrifuged at 1,000 rpm for 10 minutes, washed twice in PBS w/o (PBS without calcium and magnesium) and fixed in a solution of 50% PBS w/o+50% methanol/acetone (1:4 v/v) for at least 1 hour; the cells were then centrifuged as described, washed in PBS w/o and centrifuged again.
(§3) 200 μl of propidium iodide 100 μg/ml and 200 μl of RNase 150 kU/mg were then added to the cell pellet.
(§4) After a 30-min incubation in the dark at room temperature, the samples were analysed by flow cytofluirometry.

[5] = test system: NB4 cells (acute promyelocytic leukaemia); experiment: Flow cytofluorimetric analysis of cell cycle; design: APOPTOSIS: unit not given here; conditions: ATRA 0.01 μM alone, day 3
Procedure: The first line used was the NB4 cell line, bearing the t(15;17) chromosomal translocation which generates the fusion protein PML/RARα.
as §2, §3, §4

[6] = test system: MES-SA Dx (human uterine sarcoma); experiment: Cytotoxicity test on resistant tumour cell lines, tested compound alone; conditions: 24 h incubation, survival after 48 h, ± SD
Procedure: (§5) This test was used to evaluate the survival of human cell lines resistant to doxorubicin (about 100 times) and cross-resistant to daunorubicin, actinomycin D, mitoxantrone, vincristine, vinblastin, taxol, colchicine, and etoposide.
(§6) The following cell lines were used: MCF-7-Dx (human mammary carcinoma), LoVo-Dx (human colon adenocarcinoma), MES-SA Dx (human uterine sarcoma).
(§7) Before using the association doxorubicin-tested compound, the cytotoxicity of the cells was evaluated with the tested compound (alone) as follows: the cells were incubated with the compound, at scalar concentrations (500 μM÷0.97 μM), for 24 hours; the compound was then removed and cell survival was evaluated after 48 hours with the above-mentioned sulforodamine B test. The antiproliferative activity of the compounds was evaluated in terms of IC50 (concentration of the compound that inhibits 50% of cell survival) processed with the above-mentioned curve-fitting program.

[7] = test system: LoVo-Dx (human colon adenocarcinoma); experiment: as above; conditions: 24 h incubation, survival after 48 h, ± SD
Procedure: as §5, §6, §7

[8] = test system: MCF-7-Dx (human mammary carcinoma); experiment: as above; conditions: 24 h incubation, survival after 48 h, ± SD
Procedure: as §5, §6, §7

| SMILES | IC50 [1] | IC50 [2] | IC50 [7] | IC50 [8] | IC50 ([1]; Homo sapiens, MCF7) | IC50 ([2]; Homo sapiens, LoVo) | IC50 ([6]; Homo sapiens, MES-SA Dx) | IC50 ([7]; Homo sapiens, LoVo/DX) | IC50 ([8]; Homo sapiens, MCF7/DX) | other results |
| --- | --- | --- | --- | --- | --- | --- | --- | --- | --- | --- |
| FCCCC[C@@H](c1cc2ccccc2[nH]1)c1c[nH]c2ccccc12 (racemic) [ST 1421, (R,S)-5-fluoro-1,1-(indol-2-ylindol-3-yl)-pentane] | 20.4 ± 2.8 µM | 20.7 ± 0.7 µM |  |  |  |  |  |  |  |  |
| CCCC(c1cc2ccccc2[nH]1)c1c[nH]c2ccccc12 (racemic) [ST 1625, (R,S)-1,1-(indol-2-yl, indol-3-yl) butane] | 13.4 ± 1 µM | 17.1 ± 3.8 µM |  |  |  |  |  |  |  | IC50 [3]: 14.1 ± 3.8 µM |
| OCCCC(c1cc2cc3c(cc2[nH]1)OCO3)c1c[nH]c2cc3c(cc12)OCO3 (racemic) [ST 1731, (R,S)-4-hydroxy-1,1-di-(5,6-methylenedioxy-indol-2-yl, 5,6-methylenedioxy-indol-3-Yl)-butane] | 30.1 ± 4 µM | 23.9 ± 0.7 µM |  |  |  |  |  |  |  |  |
| CC1=C(/C=C/C(C)=C/C=C/C(C)=C/C(=O)O)C(C)(C)CCC1 [ATRA, all-trans retinoic acid, reference compound] |  |  |  |  |  |  |  |  |  | G0/G1 [4]: 63.3 and 63.4; G2/M [4]: 11.0; S [4]: 25.7 and 25.6; APOPTOSIS [5]: 10 and 17.5 and 12.5; G0/G1 [5]: 54.6 and 65.0 and 55.8; G2/M [5]: 14.4 and 11.0 and 17.3; S [5]: 31.0 and 24.0 and 26.9 |
| CC1(C)OCC(C(O)C2OC(C)(C)OC2C(c2c[nH]c3ccccc23)c2c[nH]c3ccccc23)O1 [ST 1339, 2,3-5,6-di-O-isopropylidene-1,1-di-indol-3-yl-1-deoxy-D-mannitol] |  |  | 11 ± 0.6 µM | 98.2 ± 12 µM |  |  |  |  |  | IC50 [6]: 56.1 ± 11 µM |
| OC[C@@H](O)[C@@H](O)[C@H](O)[C@@H](O)C(c1c[nH]c2ccccc12)c1c[nH]c2ccccc12 [ST 1350, 1,1-di-indol-3-yl-1-deoxy-D-glucose] |  |  | > 500 µM | 70.8 ± 3.7 µM |  |  |  |  |  | IC50 [6]: 81.4 ± 8 µM |
| CC1(C)O[C@@H]([C@H](O)[C@H]2COC(C)(C)O2)[C@@H](C(c2c[nH]c3ncccc23)c2c[nH]c3ncccc23)O1 [ST 1353, 2,3-5,6-di-O-isopropylidene-1,1-di-7-azaindol-3-yl-1-deoxy-D-mannitol] |  |  | 367 ± 82 µM | > 500 µM |  |  |  |  |  |  |
| CC(=O)OC[C@@H](OC(C)=O)[C@@H](OC(C)=O)[C@H](OC(C)=O)[C@@H](OC(C)=O)C(c1c[nH]c2ccccc12)c1c[nH]c2ccccc12 [ST 1363, 1,1-di-indol-3-yl-1-deoxy-pentaacetyl-D-glucose] | 25 ± 2.8 µM | 31.3 ± 1.6 µM | 121 ± 12 µM | 65.4 ± 0.7 µM |  |  |  |  |  | IC50 [3]: 33.6 ± 5.9 µM |
| CC(=O)OCCCCC(c1c[nH]c2ccccc12)c1c[nH]c2ccccc12 [ST 1371, 5-acetoxy-1,1-diindol-3-yl-pentane] |  |  |  |  | 27.7 ± 4.2 µM | 33 ± 3 µM | 53 ± 0.4 µM | 47.9 ± 4.7 µM | 74.1 ± 2.5 µM |  |
| FCCCCC(c1c[nH]c2ccccc12)c1c[nH]c2ccccc12 [ST 1382, 1,1-(diindol-3-yl)-5-fluoro-pentane] | 28.5 ± 6 µM | 33.5 ± 3.7 µM | 34.3 ± 6.9 µM | 40.2 ± 3 µM |  |  |  |  |  | IC50 [3]: 40.2 ± 4.1 µM; IC50 [6]: 12.5 ± 0.3 µM |
| CCCC(c1c[nH]c2ccccc12)c1c[nH]c2ccccc12 [ST 1385, 1,1-di-indol-3-yl-butane] |  |  |  |  | 27 ± 3.2 µM | 26.4 ± 0.4 µM | 33.6 ± 2.9 µM | 17.6 ± 0.9 µM | 34.6 ± 2 µM | IC50 ([3]; Homo sapiens, MES-SA): 19.5 ± 4 µM |
| CCCC(c1c[nH]c2ccc(O)cc12)c1c[nH]c2ccc(O)cc12 [ST 1393, 1,1-di-(5-hydroxyindol-3-yl)-butane] |  |  |  |  | 5.9 ± 0.8 µM | 3 ± 0.5 µM | 7.5 ± 0.3 µM | 2.7 ± 0.4 µM | 9.2 ± 0.4 µM | IC50 ([3]; Homo sapiens, MES-SA): 5.7 ± 0.1 µM |
| CCCC(c1c[nH]c2ccc([N+](=O)[O-])cc12)c1c[nH]c2ccc([N+](=O)[O-])cc12 [ST 1429, 1,1-di-(5 nitroindol-3-yl)-butane] |  |  |  |  | 10.4 ± 0.3 µM | 23.6 ± 0.5 µM | 15.3 ± 0.4 µM | 10.2 ± 0.5 µM | 12.9 ± 0.7 µM | IC50 ([3]; Homo sapiens, MES-SA): 15 ± 2.5 µM |
| CCOC(=O)c1ccc(C(c2ccccc2)c2ccc(C(=O)OCC)[nH]2)[nH]1 [ST 1431, di-(5-ethoxycarbonyl-pyrrol-2-yl)-phenyl-methane] |  |  |  |  | 20.3 ± 1.4 µM | 35.6 ± 0.5 µM |  |  |  |  |
| CCCC(c1c[nH]c2ccc(N)cc12)c1c[nH]c2ccc(N)cc12 [ST 1437, 1,1-di-(5-amino-indol-3-yl)-butane. 2HCl] | 8.3 ± 1.2 µM | 16.7 ± 3.4 µM | 8 ± 0.6 µM |  |  |  |  |  |  | IC50 [3]: 4.4 ± 0.06 µM; IC50 [6]: 12.2 ± 0.8 µM |
| CCCC(c1c[nH]c2ccc(F)cc12)c1c[nH]c2ccc(F)cc12 [ST 1438, 1,1-di-(5-fluoroindol-3-yl)-butane] |  |  |  |  | 28.1 ± 0.9 µM | 20 ± 0.8 µM | 35.6 ± 1.7 µM | 25.9 ± 3.1 µM | 41.8 ± 5.3 µM | IC50 ([3]; Homo sapiens, MES-SA): 21.8 ± 4.4 µM |
| OC(c1ccccc1)(c1nccn1Cc1ccccc1)c1nccn1Cc1ccccc1 [ST 1440, phenyl, hydroxy, di-(N,N-dibenzyl-imidazol-2-yl) methane] | 17 ± 2.9 µM | 11.7 ± 0.2 µM | 4.6 ± 0.6 µM | 29.7 ± 2.6 µM |  |  |  |  |  | IC50 [3]: 4.7 ± 0.4 µM; IC50 [6]: 14.9 ± 2.5 µM |
| O=C(c1cn(Cc2ccccc2)c2ccccc12)c1cn(Cc2ccccc2)c2ccccc12 [ST 1473, di-(N-benzyl-indol-3-yl)-oxomethane] |  |  |  |  |  |  | > 500 µM | 8.6 ± 2.9 µM | > 500 µM |  |
| CCCC(c1c[nH]c2ccc(NC(C)=O)cc12)c1c[nH]c2ccc(NC(C)=O)cc12 [ST 1477, 1,1-di-(5-acetamido-indol-3-yl)-butane] |  |  |  |  | 33.1 ± 2.9 µM | 59.4 ± 6.9 µM |  |  |  | IC50 ([3]; Homo sapiens, MES-SA): 28.7 ± 0.2 µM |
| CCCC(c1c[nH]c2cc3c(cc12)OCO3)c1c[nH]c2cc3c(cc12)OCO3 [ST 1478, 1,1-di-(5,6-methylenedioxy-indol-3-yl)-butane] |  |  |  |  | 11.8 ± 0.4 µM | 15.4 ± 1.8 µM | 7.8 ± 1.5 µM | 10.7 ± 0.6 µM | 15.2 ± 1.9 µM | IC50 ([3]; Homo sapiens, MES-SA): 17 ± 2 µM |
| c1ccc2c(C(c3c[nH]c4ccccc34)C3CCCCC3)c[nH]c2c1 [ST 1487, 1,1-di-(indol-3-yl)-cyclohexylmethane] | 29.9 ± 0.006 µM | 24.9 ± 0.1 µM | 27.8 ± 2.1 µM | 15.3 ± 1 µM |  |  |  |  |  | IC50 [3]: 38.7 ± 0.03 µM; IC50 [6]: 16 ± 3.5 µM |
| CS(=O)(=O)OCCCCC(c1c[nH]c2ccccc12)c1c[nH]c2ccccc12 [ST 1488, 1,1-di-(indol-3-yl)-5-mesyloxy-pentane] |  |  |  |  | 13.4 ± 2.2 µM | 11 ± 1.6 µM | 10.3 ± 1.9 µM | 18.1 ± 0.6 µM | 9.7 ± 1.3 µM | IC50 ([3]; Homo sapiens, MES-SA): 15.8 ± 1.8 µM |
| CCC=C(c1cn(Cc2ccccc2)c2ccccc12)c1cn(Cc2ccccc2)c2ccccc12 [ST 1492, 1,1-di-(N-benzyl-indol-3-yl)-1-butene] |  |  |  |  |  |  | 178 ± 41 µM | > 350 µM |  |  |
| CCCc1c(C(=O)c2cn(Cc3ccccc3)c3ccccc23)c2ccccc2n1Cc1ccccc1 [ST 1494, (N-benzyl-indol-3-yl, N-benzyl-2-propyl indol-3-yl)-oxomethane] |  |  | > 200 µM | > 200 µM |  |  |  |  |  | IC50 [6]: > 200 µM |
| OCCCC(c1c[nH]c2cc3c(cc12)OCO3)c1c[nH]c2cc3c(cc12)OCO3 [ST 1730, 4-hydroxy-1,1-di-(5,6-methylenedioxy-indol-3-yl)-butane] |  |  |  |  | 24.5 ± 3.7 µM | 9.3 ± 0.9 µM |  |  |  |  |
